Data: patent US12419307B2, “Mixtures comprising indazole pesticides” (FMC Corporation, priority 2019, dated 2025)
Like-named read-outs stand apart in the source and are kept apart here.

Columns and labels:
Format in all cases: in vivo
[1] = tested on: silverleaf whitefly (Bemisia argentifolii Bellows and Perring); test: Test A: silverleaf whitefly control on cotton or soybean plants, spray, insect mortality after 13 days; conditions: Bemisia argentifolii, applied alone, read-out: % Mortality (obs)
Summary of the method: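 Cotton (12–14-day) or soybean (5–7-day) plants carrying whitefly eggs were sprayed with compound in 10% acetone/water with non-ionic surfactant. Plants were held 13 days at 28°C and 50–70% RH; mortality was averaged over three replicates. Mixture enhancement was judged against Colby-expected values.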

[2] = tested on: Western Flower Thrips (Frankliniella occidentalis Pergande); test: Test B: Western Flower Thrips control on bean plants, plant damage rating converted to % plant protection after 7 days; conditions: for pest or weed control at 0.4 ppm / pest or weed control at 2 ppm: Frankliniella occidentalis, 168 h, read-out: Plant Protection (obs); for Plant Damage (obs): Table 3a; for Plant Damage (obs) / Plant Protection (obs): applied alone
Summary of the method: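 Sprayed 5- to 7-day-old bean (var. Soleil) plants, 3 replicates, dried 1 h, then infested with 22 to 27 adult thrips and held 7 days at 25° C, 45-55% RH. Feeding damage rated 0-10 and converted as 100−(rating×10) to % plant protection.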

[3] = tested on: Potato Leafhopper (Empoasca fabae Harris); test: Test C: Potato Leafhopper control on bean plants, insect mortality after 6 days; conditions: read-out: % Mortality (obs)
Summary of the method: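 Sprays (3 replicates) were applied to 5- to 6-day-old Longio bean plants with one primary leaf excised, which were dried 1 h and infested with 5 adult leafhoppers (18–21 days old). Mortality was scored after 6 days at 19-21° C and 50-70% RH. Mixture enhancement was judged against expected mortality by Colby's equation.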

[4] = tested on: corn planthopper (Peregrinus maidis (Ashmead)); test: Test C: corn planthopper control on corn plants, insect mortality after 6 days; conditions: Peregrinus maidis, read-out: % Mortality (obs)
Summary of the method: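 3-4-day-old potted corn plants sprayed at 250, 50 and/or 10 ppm (contact/systemic), dried 1 h, then infested with ~15-20 nymphs 18-21 days old. Mortality scored after 6 days at 19-21 °C, 50-70% RH; mixture effects judged against Colby-expected mortality.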

[5] = tested on: fall armyworm (Spodoptera frugiperda (J. E. Smith)); test: Test E: fall armyworm control on corn plants, plant damage rating and mortality after 6 days; conditions: Spodoptera frugiperda, 144 h, read-out: Plant Protection (obs)

## O=C(NC1(C(F)F)CC1)c1cccc2nn(-c3cccnc3)cc12 [Cpd 5, N-[1-(difluoromethyl)cyclopropyl]-2-(3-pyridinyl)-2H-indazole-4-carboxamide]
[1]; 2 h, Table 2h
  mortality at 50 ppm: 0%
  mortality at 250 ppm: 6.9%
[1]; 48 h, Table 2d
  mortality at 50 ppm: 8.9%
  mortality at 250 ppm: 11.7%
[1]; Table 2a
  mortality at 50 ppm: 17%
  mortality at 250 ppm: 13.5%
[1]; Table 2b
  mortality at 50 ppm: 49%
  mortality at 250 ppm: 19.2%
[1]; Table 2c
  mortality at 50 ppm: 56.5%
  mortality at 250 ppm: 41.1%
[1]; Table 2e
  mortality at 50 ppm: 56.3%
  mortality at 250 ppm: 11.2%
[1]; Table 2f
  mortality at 50 ppm: 84.4%
  mortality at 250 ppm: 55.1%
[1]; Table 2g
  mortality at 50 ppm: 30%
  mortality at 250 ppm: 73.4%
[1]; Table 2i
  mortality at 50 ppm: 0%
  mortality at 250 ppm: 0%
[2]; Table 3e, 0.4 ppm
  pest or weed control at 0.4 ppm: 70%
[2]; Table 3e, 2 ppm
  pest or weed control at 2 ppm: 26.7%
[2]; Table 3f, 0.4 ppm
  pest or weed control at 0.4 ppm: 33.3%
[2]; Table 3f, 2 ppm
  pest or weed control at 2 ppm: 60%
[2]; Table 3g, 0.4 ppm
  pest or weed control at 0.4 ppm: 13.3%
[2]; Table 3g, 2 ppm
  pest or weed control at 2 ppm: 26.7%
[2]; Table 3d, 0.4 ppm
  pest or weed control at 0.4 ppm: 43.3%
[2]; Table 3d, 2 ppm
  pest or weed control at 2 ppm: 63.3%
[2]; 0.4 ppm
  Plant Damage (obs): 20.0%
[2]; 2 ppm
  Plant Damage (obs): 40.0%
[2]; Table 3b, 0.4 ppm
  Plant Protection (obs): 23.3%
[2]; Table 3b, 2 ppm
  Plant Protection (obs): 36.7%
[2]; Table 3c, 0.4 ppm
  Plant Protection (obs): 16.7%
[2]; Table 3c, 2 ppm
  Plant Protection (obs): 40.0%
[3]; Table 4a
  mortality at 50 ppm: 0%
  mortality at 250 ppm: 26.7%
[3]; Table 4b
  mortality at 50 ppm: 0%
  mortality at 250 ppm: 6.7%
[3]; Table 4c
  mortality at 50 ppm: 6.7%
  mortality at 250 ppm: 26.7%
[4]; 96 h, Table 4d
  mortality at 50 ppm: 5.3%
  mortality at 250 ppm: 75%
[4]; Table 4e
  mortality at 50 ppm: 21.6%
  mortality at 250 ppm: 13.1%
[4]; Table 4f
  mortality at 50 ppm: 15.3%
  mortality at 250 ppm: 22.4%
[4]; Table 4g
  mortality at 50 ppm: 15.3%
  mortality at 250 ppm: 22.4%
[5]; Table 6e
  pest or weed control at 50 ppm: 0%
  pest or weed control at 250 ppm: 0%
[5]; Table 6f
  pest or weed control at 50 ppm: 0%
  pest or weed control at 250 ppm: 0%
[5]; Table 6g
  pest or weed control at 50 ppm: 0%
  pest or weed control at 250 ppm: 0%
[5]; Table 6i
  pest or weed control at 50 ppm: 0%
  pest or weed control at 250 ppm: 13.3%
[5]; Table 6h
  pest or weed control at 50 ppm: 0%
  pest or weed control at 250 ppm: 0%
[5]; Table 6d
  pest or weed control at 50 ppm: 0%
  pest or weed control at 250 ppm: 13.3%
